Measurements reported in patent publication US8618144B2, “Pyrrolidine-derived beta 3 adrenergic receptor agonists” (Merck Sharp & Dohme Corp, priority 2009, dated 2013).
pEC50: −log10 of the molar value. Structures can show the parent of a compound that is named as a salt. Where two headings read alike, the source gives them in different places.

Target: T1, human β3 adrenergic receptor (Homo sapiens, UniProt P13945)
T1 construct: expressed in transfected cells; host or cells: Chinese hamster ovary (CHO) cells, stably transfected
T1 sequence (P13945 whole entry): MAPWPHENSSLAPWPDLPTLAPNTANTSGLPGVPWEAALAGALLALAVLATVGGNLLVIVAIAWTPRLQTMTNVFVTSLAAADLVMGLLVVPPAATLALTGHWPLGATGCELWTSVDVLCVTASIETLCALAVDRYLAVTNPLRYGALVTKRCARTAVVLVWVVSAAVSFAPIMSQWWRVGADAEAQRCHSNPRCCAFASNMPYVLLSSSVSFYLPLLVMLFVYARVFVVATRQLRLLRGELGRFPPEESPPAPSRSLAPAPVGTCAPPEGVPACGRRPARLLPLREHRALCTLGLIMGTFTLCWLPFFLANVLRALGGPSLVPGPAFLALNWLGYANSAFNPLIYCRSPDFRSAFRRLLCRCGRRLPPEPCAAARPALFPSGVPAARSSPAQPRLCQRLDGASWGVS
Assay: Functional Assay: cAMP production in CHO cells stably transfected with cloned β3-adrenergic receptor (LANCE)
Type: cell-based
Details: CHO cells expressing β3 receptor
Method: Functional Assay: cAMP production in response to ligand is measured according to Barton et al (1991, Agonist-induced desensitization of D2 dopamine receptors in human Y-79 retinoblastoma cells. Mol. Pharmacol. […]) modified as follows. cAMP production is measured using a homogenous time-resolved fluorescence resonance energy transfer immunoassay (LANCE™, Perkin Elmer) according to the manufacture's instructions. Chinese hamster ovary (CHO) cells, stably transfected with the cloned β-adrenergic receptor (β1, β2 or β3) are harvested after 3 days of subculturing. Harvesting of cells is done with Enzyme-free Dissociation Media (Specialty Media). Cells are then counted and resuspended in assay buffer (Hank's Balanced salt solution supplemented with 5 mM HEPES, 0.1% BSA) containing a phosphodiesterase inhibitor (IBMX, 0.6 mM). The reaction is initiated by mixing 6,000 cells in 6 μL with 6 μL Alexa Fluor labeled cAMP antibody (LANCE™ kit) which is then added to an assay well containing 12 ul of compound (diluted in assay buffer to 2× final concentration). The reaction proceeds for 30 minutes at room temperature and is terminated by the addition of 24 μL detection buffer (LANCE™ kit). The assay plate is then incubated for 1 hour at room temperature and time-resolved fluorescence measured on a Perkin Elmer Envision reader or equivalent. The unknown cAMP level is determined by comparing fluorescence levels to a cAMP standard curve.
The non-selective, full agonist β-adrenergic ligand isoproterenol is used at all three receptors to determine maximal stimulation. The human β3 adrenergic receptor (AR) selective ligand (S)—N-[4-[2-[[2-hydroxy-3-(4-hydroxyphenoxy)propyl]amino]ethyl]-phenyl]-4-iodobenzenesulfonamide is used as a control in all assays. Isoproterenol is titrated at a final concentration in the assay of 10^−10 M to 10^−5 M and the selective ligand (S)—N-[4-[2-[[2-hydroxy-3-(4-hydroxyphenoxy)propyl]amino]ethyl]phenyl]-4-iodobenzenesulfonamide is titrated at the β3 receptor at concentration of 10^−10 M to 10^−5 M. Unknown ligands are titrated at all 3β-adrenergic receptor subtypes at a final concentration in the assay of 10^−10 M to 10^−5 M to determine the EC50. The EC50 is defined as the concentration of compound that gives 50% activation of its own maximum. Data are analyzed using Microsoft Excel and Graphpad Prism or an internally developed data analysis software package.

[1] = read-out: human β3 functional activity (EC50)
[2] = range classes, read-out: Human β3 EC50

pEC50 [1]	pEC50 [2]	SMILES
> 9.00	–	Nc1nc(CC(=O)Nc2ccc(C[C@@H]3CC[C@H]([C@H](O)COc4ccccc4)N3)cc2)cs1 [Example 1, 2-(2-Amino-1,3-thiazol-4-yl)-N-[4-({(2S,5R)-5-[(1S)-1-hydroxy-2-phenoxyethyl]pyrrolidin-2-yl}methyl)phenyl]acetamide bis-trifluoroacetate salt]
–	8.00 to 9.00	Cc1csc(CC(=O)Nc2ccc(C[C@@H]3CC[C@H]([C@H](O)COc4ccccc4)N3)cc2)n1 [Example 3]
> 8.00	–	O=S(=O)(Nc1ccc(C[C@@H]2CC[C@H]([C@H](O)COc3ccccc3)N2)cc1)c1ccc(-c2nc(-c3ccc(C(F)(F)F)cc3)cs2)cc1 [Example 12, N-[4-({(2S,5R)-5-[(1S)-1-Hydroxy-2-phenoxyethyl]pyrrolidin-2-yl}methyl)phenyl]-4-{4-[4-(trifluoromethyl)phenyl]-1,3-thiazol-2-yl}benzenesulfonamide trifluoroacetate salt]
6.00 to 7.00	–	Nc1nc(CC(=O)Nc2ccc(C[C@H]3CC[C@H]([C@H](O)COc4ccccc4)N3)cc2)cs1 [Example 11, 2-(2-Amino-1,3-thiazol-4-yl)-N-[4-({(2R,5R)-5-[(1S)-1-hydroxy-2-phenoxyethyl]pyrrolidin-2-yl}methyl)phenyl]acetamide bis trifluoroacetate salt]
–	> 9.00	O=C(Cc1nnc(-c2ccccc2)[nH]1)Nc1ccc(C[C@@H]2CC[C@H]([C@H](O)COc3ccccc3)N2)cc1 [Example 6]
> 9.00	–	CCCCCCNC(=O)Nc1ccc(S(=O)(=O)Nc2ccc(C[C@@H]3CC[C@H]([C@H](O)COc4ccccc4)N3)cc2)cc1 [Example 14, 4-{[(Hexylamino)carbonyl]amino}-N-[4-({(2S,5R)-5-[(1S)-1-hydroxy-2-phenoxyethyl]pyrrolidin-2-yl}methyl)phenyl]benzenesulfonamide trifluoroacetate salt]
> 8.00	–	O=S(=O)(Nc1ccc(C[C@@H]2CC[C@H]([C@H](O)COc3ccccc3)N2)cc1)c1ccc(I)cc1 [Example 13]
> 9.00	–	Nc1ncn(CC(=O)Nc2ccc(C[C@@H]3CC[C@H]([C@H](O)COc4ccccc4)N3)cc2)n1 [Example 15, 2-(3-Amino-1H-1,2,4-triazol-1-yl)-N-[4-({(2S,5R)-5-[(1S)-1-hydroxy-2-phenoxyethyl]pyrrolidin-2-yl}methyl)phenyl]acetamide trifluoroacetate salt]
–	8.00 to 9.00	Cc1nc(CC(=O)Nc2ccc(C[C@@H]3CC[C@H]([C@H](O)COc4ccccc4)N3)cc2)c(C)s1 [Example 5]
